Experimental data published in US20170252323A1, “4-[2-(Dipropylamino)ethyl]-1,3-dihydro-2H-indol-2-one (Ropinirole) a New Inhibitor of Jack bean Urease Enzyme: An Example of Drug Repurposing” (priority 2016, published 2017).
Where two headings read alike, the source gives them in different places.

Tests used:
[1] = biological target: Jack bean (Canavalia ensiformis) urease (Canavalia ensiformis, UniProt P07374); assay: biochemical
Description: Each point in the constructed graphs represents the mean of the three experiments.

urease enzyme = urease enzyme (Canavalia ensiformis, UniProt P07374); assay: Mechanistic studies (Lineweaver-Burk, secondary replot, Dixon plot); assay type: biochemical; conditions: Lineweaver-Burk and Dixon plots; substrate 0.5-4.0 mM; Ropinirole 5, 10, 20 μM
Description: Mechanistic studies were carried out to determine the mechanism of inhibition of 4-[2-(dipropylamino)ethyl]-1,3-dihydro-2H-indol-2-one ( Ropinirole) of the enzyme urease. In brief, urease enzyme solution (1 U/200 μL) was incubated with different concentrations of Ropinirole for 15 min at 30° C. The reaction was then initiated by adding different concentrations of substrate (0.5-4.0 mM), then phenol and alkali reagent were added and change in absorbance was measured for 50 minutes at 630 nm on microtitre plate reader (SpectraMax M5, Molecular Devices, Calif., USA). The Lineweaver-Burk plot was used to determine the type of inhibition, while secondary replot of Lineweaver-Burk plot and Dixon plots were used for the determination and confirmation of dissociation constants (Ki).
The EZ-Fit enzyme kinetics program (Perrella Scientific Inc., Amherst, USA) was employed to calculate the IC50 values. All graphs were plotted by using Grafit 7 (Erithacus Software Limited, UK). Values of the correlation coefficients, intercepts, slopes, and their standard errors were calculated by the linear regression analysis by using the same program. Each point in the constructed graphs represents the mean of the three experiments.

Sequence of Jack bean (Canavalia ensiformis) urease (P07374 whole entry, looked up): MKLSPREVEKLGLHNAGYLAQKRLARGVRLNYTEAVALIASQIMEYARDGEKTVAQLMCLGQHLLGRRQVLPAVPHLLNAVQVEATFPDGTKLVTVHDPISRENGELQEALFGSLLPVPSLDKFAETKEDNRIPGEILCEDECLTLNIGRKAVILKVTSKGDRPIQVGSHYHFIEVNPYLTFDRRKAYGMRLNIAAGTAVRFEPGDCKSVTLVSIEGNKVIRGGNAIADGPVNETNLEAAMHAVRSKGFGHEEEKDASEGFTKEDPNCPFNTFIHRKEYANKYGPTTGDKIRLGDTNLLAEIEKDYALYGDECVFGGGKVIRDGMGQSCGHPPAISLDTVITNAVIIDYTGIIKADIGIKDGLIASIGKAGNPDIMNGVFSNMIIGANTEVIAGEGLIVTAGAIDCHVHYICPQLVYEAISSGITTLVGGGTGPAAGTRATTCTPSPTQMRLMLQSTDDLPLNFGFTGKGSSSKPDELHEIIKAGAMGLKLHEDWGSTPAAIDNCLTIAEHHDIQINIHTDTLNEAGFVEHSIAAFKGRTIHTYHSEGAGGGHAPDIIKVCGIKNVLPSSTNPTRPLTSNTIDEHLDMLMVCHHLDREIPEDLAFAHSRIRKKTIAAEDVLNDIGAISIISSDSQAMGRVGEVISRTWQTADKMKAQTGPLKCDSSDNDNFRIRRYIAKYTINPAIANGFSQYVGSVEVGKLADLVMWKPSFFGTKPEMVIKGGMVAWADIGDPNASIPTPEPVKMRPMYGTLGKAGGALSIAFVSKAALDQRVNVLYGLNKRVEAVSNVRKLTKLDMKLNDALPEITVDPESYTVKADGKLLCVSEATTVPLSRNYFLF
Sequence of urease enzyme (P07374 whole entry, looked up): as above

With CCCN(CCC)CCc1cccc2c1CC(=O)N2 [Ropinirole, 4-[2-(Dipropylamino)ethyl]-1,3-dihydro-2H-indol-2-one] the IC50 [1] was 11.7 ± 0.46 µM and the type of inhibition (urease enzyme) was “mixed-type of inhibitor”.
In the case of CC(=O)NO [acetohydroxamic acid], the IC50 ([1]; Jack bean urease, 100 mM urea, pH 6.8, 30° C., 15 min, triplicate, read-out: IC50 (urease inhibition)) is reported as 41.5 ± 1.5 µM.
